PubChem BioAssay AID1963848 (Molecular Pharmacology Branch, DTP, NCI, 2024)

Tested on: 379773-124-R-J2-PDC spheroid viability
Assay: Anticancer human tumor 379773-124-R-J2-PDC patient-derived endometrial carcinoma cell line growth inhibition [POLQ]
Settings: spheroids with HUVEC and MSC; for IC50: curve of first compound; for viability, T/C: stronger effect = lower value
Method in brief: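 Three-cell-type spheroids modelling solid tumor plus stroma served as the readout system; POL inhibitors were tested individually and in combination, concentration ranges set by clinical Cmax where known.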

[1] = second compound 0.0316 µM, first compound 0.0316 µM
[2] = second compound 0.0316 µM, first compound 0.1 µM
[3] = second compound 0.0316 µM, first compound 0.316 µM
[4] = second compound 0.0316 µM, first compound 1 µM
[5] = second compound 0.0316 µM, first compound 3.16 µM
[6] = second compound 0.0316 µM, first compound 10 µM
[7] = second compound 0.1 µM, first compound 0.0316 µM
[8] = second compound 0.1 µM, first compound 0.1 µM
[9] = second compound 0.1 µM, first compound 0.316 µM
[10] = second compound 0.1 µM, first compound 1 µM
[11] = second compound 0.1 µM, first compound 3.16 µM
[12] = second compound 0.1 µM, first compound 10 µM
[13] = second compound 0.316 µM, first compound 0.0316 µM
[14] = second compound 0.316 µM, first compound 0.1 µM
[15] = second compound 0.316 µM, first compound 0.316 µM
[16] = second compound 0.316 µM, first compound 1 µM
[17] = second compound 0.316 µM, first compound 3.16 µM
[18] = second compound 0.316 µM, first compound 10 µM
[19] = second compound 1 µM, first compound 0.0316 µM
[20] = second compound 1 µM, first compound 0.1 µM
[21] = second compound 1 µM, first compound 0.316 µM
[22] = second compound 1 µM, first compound 1 µM
[23] = second compound 1 µM, first compound 3.16 µM
[24] = second compound 1 µM, first compound 10 µM
[25] = second compound 3.16 µM, first compound 0.0316 µM
[26] = second compound 3.16 µM, first compound 0.1 µM
[27] = second compound 3.16 µM, first compound 0.316 µM
[28] = second compound 3.16 µM, first compound 1 µM
[29] = second compound 3.16 µM, first compound 3.16 µM
[30] = second compound 3.16 µM, first compound 10 µM
[31] = second compound 10 µM, first compound 0.0316 µM
[32] = second compound 10 µM, first compound 0.1 µM
[33] = second compound 10 µM, first compound 0.316 µM
[34] = second compound 10 µM, first compound 1 µM
[35] = second compound 10 µM, first compound 3.16 µM
[36] = second compound 10 µM, first compound 10 µM
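Note: spheroids exposed to drugs for seven days before readout.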
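Throughout, for viability, T/C: percent viability relative to DMSO vehicle control taken as 100%.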

With C#Cc1c(F)ccc2cc(O)cc(-c3ncc4c(N5CC6CCC(C5)N6)nc(OCC56CCCN5CC(F)C6)nc4c3F)c12 (stereo not drawn) + Cc1cccc(N(C)C(=O)C2C(O)CCN2c2nc(C)cc(C(F)(F)F)c2C#N)c1 the IC50 (second compound 0.0316 µM) was over 10 µM, the IC50 (second compound 0.1 µM) was over 10 µM and the IC50 (second compound 0.316 µM) was over 10 µM. It also gave an IC50 (second compound 1 µM) of over 10 µM, an IC50 (second compound 3.16 µM) of over 10 µM and an IC50 (second compound 10 µM) of over 10 µM. For the same compound, the viability, T/C [1] was 81.5%, the viability, T/C [2] was 89.3% and the viability, T/C [3] was 84%. For the same compound, the viability, T/C [4] was 74.6%, the viability, T/C [5] was 84% and the viability, T/C [6] was 82%. For the same compound, the viability, T/C [7] was 93.8%, the viability, T/C [8] was 68.7% and the viability, T/C [9] was 85.8%. For the same compound, the viability, T/C [10] was 75.2%, the viability, T/C [11] was 84.8% and the viability, T/C [12] was 93%. It also gave a viability, T/C [13] of 90.8%, a viability, T/C [14] of 93.4% and a viability, T/C [15] of 77.9%. The viability, T/C [16] was 86.5%, the viability, T/C [17] was 95.5% and the viability, T/C [18] was 88.4%. It also gave a viability, T/C [19] of 80%, a viability, T/C [20] of 78.9% and a viability, T/C [21] of 73.2%. For the same compound, the viability, T/C [22] was 82.2%, the viability, T/C [23] was 95.9% and the viability, T/C [24] was 90.6%. The viability, T/C [25] was 78.9%, the viability, T/C [26] was 87.3% and the viability, T/C [27] was 85.2%. For the same compound, the viability, T/C [28] was 80%, the viability, T/C [29] was 86.2% and the viability, T/C [30] was 79.4%. The viability, T/C [31] was 84.9%, the viability, T/C [32] was 79.7% and the viability, T/C [33] was 74.2%. The viability, T/C [34] was 78.4%, the viability, T/C [35] was 88.9% and the viability, T/C [36] was 93.8%.

CCc1cc2c(N3CCc4c(cc(Cn5ccnc5)cc4-c4cn(C)nc4C(F)(F)F)C3=O)cc(C)nc2c(OC)n1 + Cc1cccc(N(C)C(=O)C2C(O)CCN2c2nc(C)cc(C(F)(F)F)c2C#N)c1 showed an IC50 (second compound 0.0316 µM) of over 10 µM, an IC50 (second compound 0.1 µM) of over 10 µM and an IC50 (second compound 0.316 µM) of over 10 µM. It also gave an IC50 (second compound 1 µM) of 9 µM, an IC50 (second compound 3.16 µM) of 6.79 µM and an IC50 (second compound 10 µM) of 1.93 µM. The viability, T/C [1] was 77.2%, the viability, T/C [2] was 80% and the viability, T/C [3] was 61.9%. For the same compound, the viability, T/C [4] was 62.4%, the viability, T/C [5] was 64% and the viability, T/C [6] was 48.9%. For the same compound, the viability, T/C [7] was 92.7%, the viability, T/C [8] was 69.5% and the viability, T/C [9] was 56.1%. For the same compound, the viability, T/C [10] was 58.4%, the viability, T/C [11] was 55.4% and the viability, T/C [12] was 46.9%. The viability, T/C [13] was 78.9%, the viability, T/C [14] was 72.9% and the viability, T/C [15] was 67.8%. The viability, T/C [16] was 59.4%, the viability, T/C [17] was 60.8% and the viability, T/C [18] was 51.4%. For the same compound, the viability, T/C [19] was 77.3%, the viability, T/C [20] was 68.2% and the viability, T/C [21] was 68.1%. The viability, T/C [22] was 59%, the viability, T/C [23] was 62.4% and the viability, T/C [24] was 46.6%. For the same compound, the viability, T/C [25] was 76.4%, the viability, T/C [26] was 73.6% and the viability, T/C [27] was 61%. For the same compound, the viability, T/C [28] was 53.9%, the viability, T/C [29] was 51.9% and the viability, T/C [30] was 48.1%. It also gave a viability, T/C [31] of 70.7%, a viability, T/C [32] of 64% and a viability, T/C [33] of 61.5%. For the same compound, the viability, T/C [34] was 49.2%, the viability, T/C [35] was 50.9% and the viability, T/C [36] was 41.2%.

In the case of O=C(Nc1ccc(O)c(NS(=O)(=O)c2ccc(F)cc2)c1)c1ccc(-c2ccccc2)cc1 + Cc1cccc(N(C)C(=O)C2C(O)CCN2c2nc(C)cc(C(F)(F)F)c2C#N)c1, the IC50 (second compound 0.0316 µM) is reported as over 10 µM, the IC50 (second compound 0.1 µM) is reported as over 10 µM and the IC50 (second compound 0.316 µM) is reported as over 10 µM. For the same compound, the IC50 (second compound 1 µM) was over 10 µM, the IC50 (second compound 3.16 µM) was over 10 µM and the IC50 (second compound 10 µM) was over 10 µM. It also gave a viability, T/C [1] of 94.5%, a viability, T/C [2] of 109% and a viability, T/C [3] of 85.7%. The viability, T/C [4] was 102%, the viability, T/C [5] was 88.9% and the viability, T/C [6] was 75.3%. It also gave a viability, T/C [7] of 88.8%, a viability, T/C [8] of 91.8% and a viability, T/C [9] of 87.2%. It also gave a viability, T/C [10] of 92.4%, a viability, T/C [11] of 86.4% and a viability, T/C [12] of 85.8%. It also gave a viability, T/C [13] of 96.7%, a viability, T/C [14] of 104% and a viability, T/C [15] of 104%. For the same compound, the viability, T/C [16] was 99.6%, the viability, T/C [17] was 92.8% and the viability, T/C [18] was 87%. The viability, T/C [19] was 102%, the viability, T/C [20] was 86.2% and the viability, T/C [21] was 90.9%. The viability, T/C [22] was 90.2%, the viability, T/C [23] was 94.5% and the viability, T/C [24] was 75.5%. It also gave a viability, T/C [25] of 98.3%, a viability, T/C [26] of 90.3% and a viability, T/C [27] of 85.4%. The viability, T/C [28] was 92.5%, the viability, T/C [29] was 85.4% and the viability, T/C [30] was 71%. For the same compound, the viability, T/C [31] was 84%, the viability, T/C [32] was 93.1% and the viability, T/C [33] was 80.4%. It also gave a viability, T/C [34] of 94%, a viability, T/C [35] of 80.5% and a viability, T/C [36] of 62.3%.

Work on COc1cccc2c1C(=O)c1c(O)c3c(c(O)c1C2=O)CC(O)(C(=O)CO)CC3OC1CC(N)C(O)C(C)O1 (stereo not drawn) + Nc1ccc(C#CCN(C(=O)Cc2ncc(C(F)(F)F)cc2C(F)(F)F)c2ccc(F)cc2)nn1 yielded an IC50 (second compound 0.0316 µM) of 0.0783 µM, an IC50 (second compound 0.1 µM) of 0.0759 µM and an IC50 (second compound 0.316 µM) of 0.0719 µM. For the same compound, the IC50 (second compound 1 µM) was 0.0655 µM, the IC50 (second compound 3.16 µM) was 0.0734 µM and the IC50 (second compound 10 µM) was 0.0554 µM. The viability, T/C [1] was 84.7%, the viability, T/C [2] was 41.7% and the viability, T/C [3] was 11.1%. The viability, T/C [4] was 12.6%, the viability, T/C [5] was 1.86% and the viability, T/C [6] was 0.23%. The viability, T/C [7] was 87.7%, the viability, T/C [8] was 37.4% and the viability, T/C [9] was 15.2%. The viability, T/C [10] was 11.9%, the viability, T/C [11] was 2.13% and the viability, T/C [12] was 0.18%. It also gave a viability, T/C [13] of 90.3%, a viability, T/C [14] of 33.3% and a viability, T/C [15] of 11.8%. For the same compound, the viability, T/C [16] was 10.2%, the viability, T/C [17] was 1.88% and the viability, T/C [18] was 0.18%. It also gave a viability, T/C [19] of 89.8%, a viability, T/C [20] of 26% and a viability, T/C [21] of 9.42%. For the same compound, the viability, T/C [22] was 10.8%, the viability, T/C [23] was 1.71% and the viability, T/C [24] was 0.23%. The viability, T/C [25] was 85.1%, the viability, T/C [26] was 37.7% and the viability, T/C [27] was 11.3%. It also gave a viability, T/C [28] of 10.1%, a viability, T/C [29] of 3.23% and a viability, T/C [30] of 1.06%. It also gave a viability, T/C [31] of 71.2%, a viability, T/C [32] of 26.8% and a viability, T/C [33] of 10.9%. The viability, T/C [34] was 9.24%, the viability, T/C [35] was 1.29% and the viability, T/C [36] was 0.25%.
